Data on four compounds can be found in PMC10099809, “Valorization of Adhatoda vasica leaves: Extraction, in vitro analyses and in silico approaches” (Frontiers in Nutrition, 2023).

The nature of series [1]: Ferric reducing antioxidant power (FRAP) assay. The protocol:
(§1) The anti-oxidant activity of vasicine was evaluated with ABTS [2,2′-azino-bis (3-ethylbenzothiazoline-6-sulfonic acid)] activity ([20]), ferric reducing power (FRAP) assay, DPPH radical scavenging activity, hydroxyl radical scavenging activity ([21]–[24]), and hydrogen peroxide assay ([25]).

For the next series, the system named is lung carcinoma (A545). The experiment in a line: Anticancer activity, direct microscopic observation and MTT assay. The class given is cell-based. The procedure: (§2) The anticancer activity of vasicine for the potential treatment of lung carcinoma (A545) was evaluated in a multi-step process. Cytotoxicity of vasicine was investigated by cytotoxicity evaluation (human fibroblast cell line, C0135C) ([39], [40]), direct microscopic observation ([41]), and MTT assay ([42]).

Another series addresses lipooxygenase (LOX). The experiment in a line: Lipooxygenase inhibition assay. Format: biochemical. An excerpt:
(§3) The anti-inflammatory activity of vasicine was investigated with lipooxygenase (LOX) inhibition assay ([26]), bovine serum albumin (BSA) method ([27]), egg albumin method ([28], [29]), and protein inhibitory action ([30]).

Another series has as its target T1, egg albumin (Gallus gallus, UniProt P01012).
T1 sequence (P01012 1-386): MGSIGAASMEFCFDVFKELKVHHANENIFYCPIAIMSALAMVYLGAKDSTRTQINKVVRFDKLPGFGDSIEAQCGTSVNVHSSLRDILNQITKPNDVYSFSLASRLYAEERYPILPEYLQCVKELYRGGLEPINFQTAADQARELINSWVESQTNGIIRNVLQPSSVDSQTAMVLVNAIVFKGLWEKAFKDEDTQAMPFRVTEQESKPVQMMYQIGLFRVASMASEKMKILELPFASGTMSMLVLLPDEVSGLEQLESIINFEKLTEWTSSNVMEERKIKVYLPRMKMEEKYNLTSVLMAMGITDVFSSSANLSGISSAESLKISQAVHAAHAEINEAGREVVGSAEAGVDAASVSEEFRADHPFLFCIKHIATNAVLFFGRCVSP
Briefly: Egg albumin method (albumin denaturation). The class given is biochemical. The conditions noted are these: for Inhibition of albumin denaturation: concentration range 10 to 100 μg/ml.
From the text: as §3

The next series has as its target α-amylase. The experiment in a line: α-amylase inhibition assay. Format: biochemical. The procedure:
(§4) The antidiabetic activity of vasicine was evaluated with in vitro enzymatic assays using α-amylase and α-glucosidase ([31]–[36]). The non-enzymatic glycosylation of hemoglobin assay was also carried out ([37]).

Series [2] addresses bovine serum albumin (BSA) (Bos taurus, UniProt P02769). The experiment in a line: BSA method (albumin denaturation). Format: biochemical.
From the text: as §3

The test system of series [3] is human fibroblast cell line, C0135C. Briefly: Cytotoxicity evaluation, MTT assay. The class given is cell-based. The following applies: cell viability. The procedure: as §2
In general terms: Tetrazolium dyes change colour on reduction, which living cells bring about.

A short description of series [4]: Hydroxyl radical scavenging assay. The following applies: for Hydroxyl radical scavenging % inhibition: range, up to 100 μg/ml. The procedure:
as §1

In the next series the target is hemoglobin (Homo sapiens, UniProt P68871+P69905). The experiment in a line: Non-enzymatic glycosylation of hemoglobin assay. Format: biochemical. The conditions noted are these: incubation of hemoglobin with glucose for 72 h; in comparison to the standard drug. The procedure: as §4
For the next series, the target named is proteinase. The experiment in a line: Proteinase inhibitory activity. The class given is biochemical.
From the text: as §3

The nature of series [5]: DPPH radical scavenging activity. The following applies: for DPPH % inhibition: at 100 μg/ml. The protocol: as §1
(In general: DPPH is a stable violet radical that fades when it is reduced.)

A further series can be described thus: ABTS scavenging activity. The protocol: as §1
The next series can be described thus: Hydrogen peroxide assay. The procedure: as §1
The next series deals with Escherichia coli. The experiment in a line: Antibacterial colony forming units (CFU) assay. The class given is cell-based. The conditions noted are these: E. coli; increasing concentration of purified vasicine. The procedure: (§5) Antibacterial assay was carried outby colony forming units (CFU) assay using anaerobic and facultative oral bacteria ([17]). Two different bacterial strains (Escherichia coli and Bacillus badius) were collected from NCCS, Pune. […] The broth were kept in incubator at 37°C for 24 h. Two strains of Bacteria were grown in MH broth to an OD600nm of 0.5. 2 μLaliquot of the bacteria and 5 ml of fresh MH broth (contains various concentration of vasicine) was added ([19]). The log10 reduction in CFU/ml was determined.

Another series concerns Bacillus badius. Briefly: Antibacterial colony forming units (CFU) assay. The class given is cell-based. The following applies: increasing concentration of purified vasicine. The procedure: as §5
Series [6] deals with serum alkaline phosphatase. Also on record: method as in Srinivasarao et al. ([60]). The conditions noted are these: Swiss albino mice treated with vasicine; ref Srinivasarao et al. ([60]); cited from earlier work.

≈ marks a conversion by molar mass, not a printed value.

Chain of bovine serum albumin (BSA) (P02769 25-607): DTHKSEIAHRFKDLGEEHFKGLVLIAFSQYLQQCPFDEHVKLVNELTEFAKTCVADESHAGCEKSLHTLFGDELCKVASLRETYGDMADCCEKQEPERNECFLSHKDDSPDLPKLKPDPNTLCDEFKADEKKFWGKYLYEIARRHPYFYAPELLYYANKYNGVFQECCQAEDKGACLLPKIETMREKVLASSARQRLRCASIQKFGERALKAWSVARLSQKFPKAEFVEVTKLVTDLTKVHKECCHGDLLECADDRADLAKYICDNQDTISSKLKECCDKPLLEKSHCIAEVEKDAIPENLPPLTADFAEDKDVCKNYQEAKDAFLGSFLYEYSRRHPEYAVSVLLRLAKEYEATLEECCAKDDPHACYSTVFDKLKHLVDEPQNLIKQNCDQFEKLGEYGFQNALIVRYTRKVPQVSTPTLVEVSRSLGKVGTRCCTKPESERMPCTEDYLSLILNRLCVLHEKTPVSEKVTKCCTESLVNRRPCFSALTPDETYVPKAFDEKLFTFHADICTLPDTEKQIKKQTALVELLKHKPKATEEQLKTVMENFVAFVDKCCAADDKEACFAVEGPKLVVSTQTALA
Chain of hemoglobin (P69905 2-142 limits assumed): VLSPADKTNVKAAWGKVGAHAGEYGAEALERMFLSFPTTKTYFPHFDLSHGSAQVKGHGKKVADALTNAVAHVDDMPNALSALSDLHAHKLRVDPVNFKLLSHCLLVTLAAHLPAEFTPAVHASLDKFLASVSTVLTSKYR
Chain of hemoglobin (P68871 2-147 limits assumed): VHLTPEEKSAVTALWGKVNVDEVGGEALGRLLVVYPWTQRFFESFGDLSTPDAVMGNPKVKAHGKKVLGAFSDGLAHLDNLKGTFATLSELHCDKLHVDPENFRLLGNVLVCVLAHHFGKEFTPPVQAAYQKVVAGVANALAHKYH

For `O[C@H]1CCN2Cc3ccccc3N=C12` [vasicine], the “FRAP IC50” value in series [1] stood at 15 µg/mL. Moreover, the FRAP % inhibition in [1] (at 100 μg/ml) came to 62%. In the series with lung carcinoma (A545) (A545, read-out: Growth inhibition of lung cancer cell line), the inhibition – broadly, the share of the control response that was lost under treatment – at 100 µg/mL was determined as 30.1%. In the series on lung carcinoma (A545) (discussion statement, concentration not given), the “Inhibition of cell growth, lung cancer cell line” value is “More than 50%”. Further, at lipooxygenase (LOX), the “Lipooxygenase IC50” value stood at 76 µg/mL. Moreover, in the series with lipooxygenase (LOX) (maximum), the “Lipooxygenase maximum percentage inhibition” value is 83%. Besides, at egg albumin, 283 µM corresponded to half-maximal inhibition (IC50) and the “Inhibition of albumin denaturation” value was 81%. For the same compound, on α-amylase, the “α-amylase inhibition IC50” value was determined as 47.6 µg/mL. In series [2], the IC50 – broadly, the concentration needed to halve the response being measured – is 275 µM. For the same compound, the “BSA method maximum percentage of inhibition” value in [2] (maximum) is on record as 82%. For the same compound, the IC50 in series [3] is 82.5 µg/mL (≈ 438 µM). For the same compound, in series [4], the “Hydroxyl radical scavenging IC50” value turned out to be 22 µg/mL and the “Hydroxyl radical scavenging % inhibition” value was 12–69%. For the same compound, the “Inhibition of hemoglobin glycosylation” value on hemoglobin is given as “substantially inhibits hemoglobin glycosylation”. In addition, the “Proteinase inhibitory IC50” value on proteinase was 76 µg/mL. In series [5], the “DPPH radical scavenging IC50” value worked out at 18.2 µg/mL and the DPPH % inhibition was 81%. Also, the “ABTS scavenging IC50” value in “ABTS scavenging activity” stood at 11.5 µg/mL. Besides, the “Hydrogen peroxide assay IC50” value in “Hydrogen peroxide assay” turned out to be 27.8 µg/mL. The “Inhibitory activity against hydrogen peroxide” value in “Hydrogen peroxide assay” (10–100 μg) is listed as 9–59%. Moreover, the “Number of colonies (CFU assay)” value with Escherichia coli is recorded as “number of colonies reduced”. For the same compound, in the series on Bacillus badius, the “Number of colonies (CFU assay)” value was “number of colonies reduced”. In addition, the Serum alkaline phosphatase result in [6] is “increase in serum alkaline phosphatase”.
For `O=C(O)Cc1ccccc1Nc1c(Cl)cccc1Cl` [diclofenac sodium, reference compound], in the series on lipooxygenase (LOX) (at 100 μg/ml), the Lipooxygenase % inhibition was determined as 82%. For the same compound, the “Inhibition of albumin denaturation” value at egg albumin was 89%.
For the compound `CC(=O)Oc1ccccc1C(=O)O` [aspirin, reference compound], the Proteinase % inhibition in the series with proteinase (standard) was 79%.
Regarding `O=C1O[C@H]([C@@H](O)CO)C(O)=C1O` [ascorbic acid, reference compound], the “Hydroxyl radical scavenging % inhibition” value in series [4] was 15–86%. Moreover, the DPPH % inhibition in series [5] worked out at 96%.
